Results taken from patent publication US20150291593A1, “NOVEL HETEROARYL AND HETEROCYCLE COMPOUNDS, COMPOSITIONS AND METHODS” (HUTCHISON MEDIPHARMA LIMITED, priority 2012, published 2015).

How the values were obtained:
Assay type in all cases: biochemical
p110δ/p85α = biological target: T1, p110δ/p85α (Homo sapiens, UniProt O00329); test: Transcreener KINASE Assay, kinase inhibition of p110δ/p85α; conditions: for IC50: read-out: PI3Kδ IC50
T1 construct: purchased Invitrogen
Procedure: (§1) PI3K kinases including p110α/p85α, p110δ/p85α and p110γ are purchased from Invitrogen, and p110β/p85α is from Millipore.
(§2) Primary screening data and IC50 values are measured using Transcreener™ KINASE Assay (Bellbrook, Catalog #3003-10K). […] It is a universal, homogenous, high throughput screening (HTS) technology using a far-red, competitive fluorescence polarization immunoassay based on the detection of ADP to monitor the activity of enzymes that catalyze group transfer reactions. Briefly, the Transcreener KINASE Assay is designed as a simple two-part, endpoint assay.
(§3) In the first step, the 25 ul kinase reaction is performed by preparing a reaction mixture containing 5 ul test compound (2% DMSO final concentration), 10 ul kinase, buffer (50 mM HEPES, 100 mM NaCl, 1 mM EGTA, 0.03% CHAPS, 3 mM MgCl2, and freshly supplemented 1 mM DTT), and 10 ul 30 uM PIP2/10 uM ATP. The plate is sealed and incubated for 80 min at room temperature. Next, 25 ul ADP detection mix is added per well. The plate is sealed again and incubated for 60 min at room temperature, and then measure fluorescence polarization by Tecan Infinite F500 Reader.
(§4) Data is analyzed and IC50s are generated using the add-in software for Microsoft Excel, Xlfit™ (version 2.0). IH %=(ADP amount under 2% DMSO-ADP amount under test compound)/ADP amount under 2% DMSO.

p110γ = biological target: T2, p110γ (Homo sapiens, UniProt P48736); test: Transcreener KINASE Assay, kinase inhibition of p110γ; conditions: for IC50: read-out: PI3Kγ IC50
T2 construct: purchased Invitrogen
Procedure: PI3K kinases including p110α/p85α, p110δ/p85α and p110γ are purchased from Invitrogen, and p110β/p85α is from Millipore. Primary screening data and IC50 values are measured using Transcreener™ KINASE Assay (Bellbrook, Catalog #3003-10K). […] It is a universal, homogenous, high throughput screening (HTS) technology using a far-red, competitive fluorescence polarization immunoassay based on the detection of ADP to monitor the activity of enzymes that catalyze group transfer reactions. Briefly, the Transcreener KINASE Assay is designed as a simple two-part, endpoint assay. […] The plate is sealed and incubated for 80 min at room temperature. Next, 25 ul ADP detection mix is added per well. The plate is sealed again and incubated for 60 min at room temperature, and then measure fluorescence polarization by Tecan Infinite F500 Reader. Data is analyzed and IC50s are generated using the add-in software for Microsoft Excel, Xlfit™ (version 2.0).

p110β/p85α = biological target: T3, p110β/p85α (Homo sapiens, UniProt P42338); test: Transcreener KINASE Assay, kinase inhibition of p110β/p85α; conditions: for IC50: read-out: PI3Kβ IC50
T3 construct: purchased Millipore
Procedure: as §1, §2, §3, §4

T3 sequence (P42338 whole entry, species assumed): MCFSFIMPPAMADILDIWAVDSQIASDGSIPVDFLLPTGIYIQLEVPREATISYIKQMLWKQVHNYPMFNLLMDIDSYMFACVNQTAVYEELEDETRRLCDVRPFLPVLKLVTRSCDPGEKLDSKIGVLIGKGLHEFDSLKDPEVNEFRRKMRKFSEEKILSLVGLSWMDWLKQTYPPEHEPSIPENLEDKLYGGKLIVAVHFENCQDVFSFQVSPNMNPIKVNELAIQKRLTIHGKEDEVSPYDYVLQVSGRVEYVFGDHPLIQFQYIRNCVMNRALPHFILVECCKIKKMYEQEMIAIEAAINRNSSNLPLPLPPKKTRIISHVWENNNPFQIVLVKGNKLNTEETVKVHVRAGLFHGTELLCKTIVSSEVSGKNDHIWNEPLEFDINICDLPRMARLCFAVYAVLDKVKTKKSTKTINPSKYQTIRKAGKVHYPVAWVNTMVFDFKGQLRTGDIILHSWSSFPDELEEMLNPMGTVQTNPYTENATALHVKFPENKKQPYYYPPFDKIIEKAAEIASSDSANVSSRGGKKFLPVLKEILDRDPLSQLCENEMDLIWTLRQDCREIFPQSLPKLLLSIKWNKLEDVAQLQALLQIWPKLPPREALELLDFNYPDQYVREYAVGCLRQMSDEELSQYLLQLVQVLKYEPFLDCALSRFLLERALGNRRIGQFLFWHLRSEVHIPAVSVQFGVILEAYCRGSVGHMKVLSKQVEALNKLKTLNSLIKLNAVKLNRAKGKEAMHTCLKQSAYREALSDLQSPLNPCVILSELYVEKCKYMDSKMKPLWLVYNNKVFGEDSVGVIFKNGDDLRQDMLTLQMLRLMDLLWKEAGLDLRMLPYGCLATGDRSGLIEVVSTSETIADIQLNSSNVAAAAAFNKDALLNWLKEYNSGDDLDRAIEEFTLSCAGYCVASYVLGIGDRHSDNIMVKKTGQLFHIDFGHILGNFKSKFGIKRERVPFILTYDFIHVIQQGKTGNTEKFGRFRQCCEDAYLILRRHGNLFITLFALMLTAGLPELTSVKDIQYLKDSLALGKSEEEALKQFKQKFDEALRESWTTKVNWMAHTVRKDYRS
T3 sequence (P27986 whole entry partner, species assumed): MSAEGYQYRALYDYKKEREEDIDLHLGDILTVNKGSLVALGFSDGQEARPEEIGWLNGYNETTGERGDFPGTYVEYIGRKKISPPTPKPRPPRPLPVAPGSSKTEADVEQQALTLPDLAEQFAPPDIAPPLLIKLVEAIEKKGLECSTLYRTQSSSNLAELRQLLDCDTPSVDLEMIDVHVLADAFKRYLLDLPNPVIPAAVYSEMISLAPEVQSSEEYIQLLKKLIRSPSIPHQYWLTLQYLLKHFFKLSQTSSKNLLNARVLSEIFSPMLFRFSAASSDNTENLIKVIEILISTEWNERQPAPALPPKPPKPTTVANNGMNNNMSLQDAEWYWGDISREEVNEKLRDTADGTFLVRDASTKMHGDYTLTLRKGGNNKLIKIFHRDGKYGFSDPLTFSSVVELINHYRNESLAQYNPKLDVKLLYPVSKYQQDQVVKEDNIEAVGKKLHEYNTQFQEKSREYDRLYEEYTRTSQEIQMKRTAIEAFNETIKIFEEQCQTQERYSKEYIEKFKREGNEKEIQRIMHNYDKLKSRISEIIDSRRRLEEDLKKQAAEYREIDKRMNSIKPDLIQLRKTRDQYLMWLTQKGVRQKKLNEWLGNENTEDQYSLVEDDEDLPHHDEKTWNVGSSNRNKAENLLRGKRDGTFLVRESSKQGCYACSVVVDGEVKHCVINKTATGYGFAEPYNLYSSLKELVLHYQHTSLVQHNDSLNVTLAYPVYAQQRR
T2 sequence (P48736 whole entry, species assumed): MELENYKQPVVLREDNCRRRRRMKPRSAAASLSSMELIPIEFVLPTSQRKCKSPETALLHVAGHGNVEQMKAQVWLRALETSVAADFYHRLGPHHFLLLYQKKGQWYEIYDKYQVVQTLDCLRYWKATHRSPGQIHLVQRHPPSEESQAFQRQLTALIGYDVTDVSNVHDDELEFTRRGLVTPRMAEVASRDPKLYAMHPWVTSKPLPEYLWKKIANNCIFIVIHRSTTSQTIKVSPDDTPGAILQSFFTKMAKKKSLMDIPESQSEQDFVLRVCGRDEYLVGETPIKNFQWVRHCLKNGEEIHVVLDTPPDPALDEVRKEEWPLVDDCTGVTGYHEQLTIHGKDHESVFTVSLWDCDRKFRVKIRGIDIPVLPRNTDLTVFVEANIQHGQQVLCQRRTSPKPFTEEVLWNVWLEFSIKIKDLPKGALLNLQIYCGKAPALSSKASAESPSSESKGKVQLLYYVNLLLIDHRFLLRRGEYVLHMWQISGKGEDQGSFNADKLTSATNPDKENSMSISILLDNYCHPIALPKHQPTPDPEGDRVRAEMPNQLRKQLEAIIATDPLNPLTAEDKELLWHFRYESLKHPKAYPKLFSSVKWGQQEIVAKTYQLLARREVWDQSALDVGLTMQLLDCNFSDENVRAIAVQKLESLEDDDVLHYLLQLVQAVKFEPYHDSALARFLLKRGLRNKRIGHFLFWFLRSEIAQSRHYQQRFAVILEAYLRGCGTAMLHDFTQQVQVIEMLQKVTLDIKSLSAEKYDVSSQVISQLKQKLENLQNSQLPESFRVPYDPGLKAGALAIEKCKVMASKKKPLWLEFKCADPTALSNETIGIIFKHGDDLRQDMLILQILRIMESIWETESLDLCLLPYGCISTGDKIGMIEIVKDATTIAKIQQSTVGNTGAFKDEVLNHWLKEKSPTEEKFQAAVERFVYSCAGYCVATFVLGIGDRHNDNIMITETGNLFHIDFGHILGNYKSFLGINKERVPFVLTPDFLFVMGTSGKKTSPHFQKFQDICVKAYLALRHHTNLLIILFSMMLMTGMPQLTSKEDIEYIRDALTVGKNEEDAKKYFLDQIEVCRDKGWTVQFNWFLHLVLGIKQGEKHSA
T1 sequence (O00329 whole entry, species assumed): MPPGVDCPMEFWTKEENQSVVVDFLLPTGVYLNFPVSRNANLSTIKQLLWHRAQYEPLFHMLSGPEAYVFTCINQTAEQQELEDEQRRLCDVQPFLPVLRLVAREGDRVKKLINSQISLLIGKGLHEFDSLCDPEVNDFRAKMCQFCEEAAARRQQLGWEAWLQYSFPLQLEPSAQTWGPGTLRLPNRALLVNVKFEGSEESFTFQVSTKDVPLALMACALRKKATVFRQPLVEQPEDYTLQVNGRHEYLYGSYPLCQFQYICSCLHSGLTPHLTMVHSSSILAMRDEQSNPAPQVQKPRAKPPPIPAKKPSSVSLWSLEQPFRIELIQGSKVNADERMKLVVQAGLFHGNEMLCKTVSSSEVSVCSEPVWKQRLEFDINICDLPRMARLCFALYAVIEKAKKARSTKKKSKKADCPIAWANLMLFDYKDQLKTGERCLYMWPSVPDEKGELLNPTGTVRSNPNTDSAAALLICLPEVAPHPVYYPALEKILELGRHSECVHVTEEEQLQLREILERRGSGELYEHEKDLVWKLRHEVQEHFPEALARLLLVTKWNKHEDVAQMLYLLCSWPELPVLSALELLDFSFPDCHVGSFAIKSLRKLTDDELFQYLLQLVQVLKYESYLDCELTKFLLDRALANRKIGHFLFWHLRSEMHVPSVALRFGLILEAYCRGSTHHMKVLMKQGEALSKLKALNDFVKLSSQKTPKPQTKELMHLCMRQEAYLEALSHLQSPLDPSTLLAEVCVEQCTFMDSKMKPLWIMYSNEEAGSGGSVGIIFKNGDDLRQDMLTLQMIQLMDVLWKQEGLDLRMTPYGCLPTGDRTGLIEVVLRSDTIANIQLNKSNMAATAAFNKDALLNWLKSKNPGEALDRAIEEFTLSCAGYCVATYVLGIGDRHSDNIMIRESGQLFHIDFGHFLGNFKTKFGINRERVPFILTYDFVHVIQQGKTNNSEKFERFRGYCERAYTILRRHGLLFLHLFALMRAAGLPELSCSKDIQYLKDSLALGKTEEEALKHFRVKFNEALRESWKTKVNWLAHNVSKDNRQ
T1 sequence (P27986 whole entry partner, species assumed): as the sequence (P27986 whole entry partner, species assumed) above

SMILES	IC50 (p110δ/p85α)	IC50 (p110γ)	other results
CC(Nc1ncnc2[nH]cc(F)c12)c1cc2ncc(Cl)n2c(=O)n1-c1ccccc1 (single isomer, unassigned) [Compound 451]	0.035 µM		
CC(=O)c1cnc(N)nc1NC(C)c1cn2ccc(F)c2c(=O)n1-c1ccccc1 (single isomer, unassigned) [Compound 452]	0.0003 µM	0.001 µM	IC50 (p110β/p85α): 0.013 µM
Cc1ccn2nc([C@@H]3CCCN3c3ncnc4[nH]cc(C#N)c34)n(-c3ccccc3)c(=O)c12 [Compound 42]	~0.001 µM		
N#Cc1c[nH]c2ncnc(N3C[C@H](O)C[C@H]3c3nn4ccc(Cl)c4c(=O)n3-c3ccccc3)c12 [Compound 70, 4-((2S,4R)-2-(5-chloro-4-oxo-3-phenyl-3,4-dihydropyrrolo[1,2-f][1,2,4]triazin-2-yl)-4-hydroxypyrrolidin-1-yl)-7H-pyrrolo[2,3-d]pyrimidine-5-carbonitrile]			PI3Kγ IH % @ 1 uM (p110γ): >100%
CC(Nc1ncnc2[nH]cnc12)c1cn2ccc(Cl)c2c(=O)n1-c1ccc(F)cc1 (centres unmarked) [Compound 78]		0.018 µM	IC50 (p110β/p85α): 0.026 µM
CC(Nc1ncnc(N)c1C#N)c1cn2ccc(Cl)c2c(=O)n1-c1ccc(F)cc1 (centres unmarked) [Compound 79]			IC50 (p110β/p85α): 0.006 µM; PI3Kδ IH % @ 1 uM (p110δ/p85α): 99.0%
CC(Nc1ncnc2[nH]cnc12)c1cn2ccc(Cl)c2c(=O)n1-c1cc(F)cc(F)c1 (centres unmarked) [Compound 80]	0.007 µM	0.046 µM	PI3Kδ IH % @ 1 uM (p110δ/p85α): >100%
Nc1ncc(-c2c[nH]c3ncnc(N4CC[C@H]4c4nn5ccc(Cl)c5c(=O)n4-c4ccccc4)c23)cn1 [Compound 104]	< 0.0005 µM		
COc1ccc(-c2c(N)ncnc2N2CC[C@H]2c2nn3ccc(Cl)c3c(=O)n2-c2ccccc2)cn1 [Compound 108, (S)-2-(1-(6-amino-5-(6-methoxypyridin-3-yl)pyrimidin-4-yl)azetidin-2-yl)-5-chloro-3-phenylpyrrolo[1,2-f][1,2,4]triazin-4(3H)-one]	0.097 µM	0.199 µM	
O=c1c2c(Cl)ccn2nc([C@@H]2CCCN2c2ncnc3[nH]ccc23)n1-c1ccccc1 [Compound 145]			PI3Kγ IH % @ 1 uM (p110γ): 100%
O=c1c2c(Cl)ccn2nc([C@@H]2COCCN2c2ncnc3[nH]cnc23)n1-c1ccccc1 [Compound 153]	0.011 µM	0.165 µM	
N#Cc1c[nH]c2ncnc(N3C[C@@H](F)C[C@H]3c3nn4ccc(Cl)c4c(=O)n3Cc3ccccn3)c12 [Compound 158]			PI3Kγ IH % @ 1 uM (p110γ): 100%
COc1ncc(-c2c[nH]c3ncnc(N4CC[C@H]4c4nn5ccc(F)c5c(=O)n4-c4ccccc4)c23)cn1 [Compound 181]	< 0.00046 µM		
COc1ccc(-c2c[nH]c3ncnc(N4CC[C@H]4c4nn5ccc(F)c5c(=O)n4-c4ccccc4)c23)cn1 [Compound 182]	< 0.00046 µM		
Nc1ccc(-c2c[nH]c3ncnc(N4CC[C@H]4c4nn5ccc(F)c5c(=O)n4-c4ccccc4)c23)cn1 [Compound 183]	< 0.00046 µM		
C[S+]([O-])c1c[nH]c2ncnc(N3CCC[C@H]3c3nn4ccc(Cl)c4c(=O)n3-c3ccccc3)c12 (some centres unmarked) [Compound 187]		0.033 µM	IC50 (p110β/p85α): 0.088 µM
O=c1c2c(Cl)ccn2nc([C@@H]2C[C@H](O)CN2c2ncnc3[nH]cnc23)n1-c1ccccc1 [Compound 262]	< 0.001 µM		
Nc1ncc([N+](=O)[O-])c(N2CC[C@H]2c2nn3ccc(Cl)c3c(=O)n2-c2ccccc2)n1 [Compound 282]	0.04 µM	0.025 µM	
CO/N=C(\C)c1c[nH]c2ncnc(N3CCC[C@H]3c3nn4ccc(Cl)c4c(=O)n3-c3ccccc3)c12 [Compound 308]	0.021 µM	0.037 µM	
CC(O)c1cnc(N)nc1N1CC[C@H]1c1nn2ccc(Cl)c2c(=O)n1-c1ccccc1 (stereo partly drawn) [Compound 357, 2-((2S)-1-(2-amino-5-(1-hydroxyethyl)pyrimidin-4-yl)azetidin-2-yl)-5-chloro-3-phenylpyrrolo[2,1-f][1,2,4]triazin-4(3H)-one]	> 0.3 µM		
C[S+]([O-])c1cnc(N)nc1N1CC[C@H]1c1nn2ccc(Cl)c2c(=O)n1-c1ccccc1 (some centres unmarked) [Compound 399]			PI3Kβ IH % @ 1 uM (p110β/p85α; @ 1 uM): 3.5%
